These results are taken from PubChem BioAssay AID747 (Structural Genomics Consortium, 2007).

The target in the assay is Sulfotransferase 1E1 (Homo sapiens) (UniProt P49888). In words: ligand binding to SULT1E1 via aggregation temperature – biophysical, StarGazer light scattering, human (AID 747). The following applies: purified SULT1E1, StarGazer light scattering thermal shift; at 1 mM; stronger effect = higher value.
Sulfotransferase 1E1 (Homo sapiens), sequence (P49888 whole entry, looked up): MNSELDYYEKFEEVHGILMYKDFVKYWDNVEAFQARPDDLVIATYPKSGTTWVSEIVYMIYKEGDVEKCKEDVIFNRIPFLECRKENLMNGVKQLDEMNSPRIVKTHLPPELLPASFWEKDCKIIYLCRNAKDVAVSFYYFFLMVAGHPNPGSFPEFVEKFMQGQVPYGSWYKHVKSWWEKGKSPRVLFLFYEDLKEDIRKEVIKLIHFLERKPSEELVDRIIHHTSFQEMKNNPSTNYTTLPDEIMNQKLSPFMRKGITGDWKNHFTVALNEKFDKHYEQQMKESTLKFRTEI

Consider `NC(Cc1cc(I)c(Oc2ccc(O)c(I)c2)c(I)c1)C(=O)O` (stereo unspecified), for which the Tagg shift is 2.6 °C.
On to `Oc1ccc(/C=C/c2cc(O)cc(O)c2)cc1`, for which the Tagg shift is 2.25 °C.
In the case of `O=C(O)c1ccccc1O` it was 0 °C; in that of `Cc1ncc(COP(=O)(O)O)c(C=O)c1O`, 3.95 °C.
`Nc1ccc(O)cc1`: the Tagg shift was determined as 0 °C.
Regarding `NCCc1ccc(O)c(O)c1`, the Tagg shift worked out at 0 °C.
For `CCc1ccccc1O`, the Tagg shift was found to be 0 °C.
For `COc1cc(C=O)ccc1O`, the Tagg shift turned out to be 0 °C.
Regarding `Oc1c(Cl)c(Cl)c(Cl)c(Cl)c1Cl`, the Tagg shift turned out to be 0 °C.
For `Cc1cccc(Nc2ccccc2C(=O)O)c1C`, the Tagg shift was determined as 2.35 °C.
As to `COC(=O)CCC(C)C1CCC2C3CCC4CC(O)CCC4(C)C3CCC12C` (stereo unspecified), the Tagg shift was 1.2 °C.
Consider `O=[N+]([O-])c1cc(Cl)c(O)c(Cl)c1`, for which the Tagg shift turned out to be 1.4 °C.
Regarding `Oc1ccc2ccccc2c1`, the Tagg shift amounted to 0 °C.
Take `CC(C)NCC(O)c1ccc(O)c(O)c1` (stereo unspecified): the Tagg shift was determined as 0 °C.
On to `Oc1cccc2ccccc12`, for which the Tagg shift is 0 °C.
For the molecule `O=c1c(O)c(-c2ccc(O)c(O)c2)oc2cc(O)cc(O)c12`, the Tagg shift stood at 1.95 °C.
Turning to `Cc1ccc(O)cc1`, the Tagg shift came out at 0 °C.
In the case of `C[C@]12CC[C@@H]3c4ccc(O)cc4CC[C@H]3[C@@H]1CCC2=O` it was 1.1 °C; in that of `CN1CCc2cccc3c2C1Cc1ccc(O)c(O)c1-3` (stereo unspecified), 0 °C; in that of `NC[C@H](O)c1ccc(O)c(O)c1`, 0 °C.
On to `C[C@]12CC[C@H](OS(=O)(=O)O)CC1=CC[C@@H]1[C@@H]2CC[C@]2(C)C(=O)CC[C@@H]12`, for which the Tagg shift worked out at 1.1 °C.
For the molecule `C[C@]12CC[C@@H]3c4cc(O)c(O)cc4CC[C@H]3[C@@H]1CC[C@@H]2O`, the Tagg shift came out at 1.55 °C.
In the case of `CCCc1ccccc1O`, the Tagg shift worked out at 0 °C.
`C[C@H]1CCC[C@H](O)CCC/C=C/c2cc(O)cc(O)c2C(=O)O1`: the Tagg shift is 1.3 °C.
As to `CNCC(O)c1ccc(O)c(O)c1` (stereo unspecified), the Tagg shift came to 0 °C.
With `CCC(C)c1ccccc1O` (stereo unspecified) the figure was 0 °C.
